Measured values from patent publication US20220296625A1 (priority 2019, published 2022).
Read-outs that look alike come from different tables or passages of the source.

Key:
[1] = test system: male C57BL mice; test: Survival of mice after streptozotocin i.p. with or without oral LPSp (Example 1); format: in vivo; details: STZ 250 mg/kg i.p.; for Survival rate (%): LPSp 100 μg/kg body weight/day in drinking water
Protocol: 1) Reagents • LPS (LPSp) derived from Pantoea agglomerans belonging to genus Pantoea of family Enterobacteriaceae (mac0001 of Macrophi Inc.) • Streptozotocin (STZ) (SAJ-S0130 of Sigma-Aldrich)
(§1) Six-week-old male C57BL mice were used. […] As food, the D12450B diet of Research Diets, Inc. was provided.
PBS administration group (PBS i.p.): 0.5 mL of phosphate buffer saline (PBS) were injected into the peritoneal cavity of each mouse.

[2] = test system: male C57BL mice; test: Survival of mice after streptozotocin i.p. with or without oral LPSea (Example 5); format: in vivo; details: STZ 313 mg/kg i.p.; for Survival rate (%): LPSea 1 mg/kg body weight/day in drinking water
Excerpt: 1) Reagents • LPS (LPSea) derived from Enterobacter asburiae belonging to genus Enterobacter of family Enterobacteriaceae (Macrophi Inc.) • Streptozotocin (STZ) (SAJ-S0130 of Sigma-Aldrich)
as §1

[3] = format: in vivo, mice; details: for Mice body weights after anticancer agent administration (relative value in % with body weights for saline i.p. being 100): LPSp 1 mg/kg body weight/day in drinking water
Excerpt: (§2) Four-week-old male ICR mice were used.

[4] = test system: male ICR mice; test: Survival of mice after cisplatin i.p. with or without oral LPSp (Example 2); format: in vivo; details: cisplatin 17.4 mg/kg i.p.; for Survival rate (%): LPSp 1 mg/kg body weight/day in drinking water
Excerpt: as §2

[5] = Body weight of mice after cyclophosphamide i.p. with or without oral LPSp (Example 3); details: 11th day and 13th day from administration; Tukey's multiple comparison test
Protocol: Four-week-old male ICR mice were used. Husbandry of the mice was carried out in a temperature and humidity controlled animal facility under environmental conditions of ad libitum food and water, and 12 hr light/12 hr dark. As food, CE-12 of CLEA Japan, Inc. was provided. After measuring the body weights at the time of delivery, the mice were divided into 3 groups of 6 mice each.
Physiological saline administration group (saline i.p.): 0.5 mL of physiological saline were injected into the peritoneal cavity of each mouse.

SMILES: CN(N=O)C(=O)N[C@H]1C(O)O[C@H](CO)[C@@H](O)[C@@H]1O (mixture of isomers) [STZ i.p., Streptozotocin]
- mice died ([1]; 5th day): 6 out of 6
- Survival rate (%) ([1]; day 3, 6 mice per group): 66.7%
- Survival rate (%) ([1]; day 4): 33.3%
- Survival rate (%) ([1]; day 4.5): 33.3%
- Survival rate (%) ([1]; day 5): 0.0%
- Survival rate (%) ([1]; day 9): 0.0%
- Survival rate (%) ([1]; day 11): 0.0%
- Survival rate (%) ([1]; day 21): 0.0%
- Survival rate (%) ([1]; day 29): 0.0%
- mice died ([2]; by the 4th day from anticancer agent administration, LPSea 1 mg/kg body weight/day): 1 out of 6
- Survival rate (%) ([2]; day 3, 6 mice per group): 100%
- Survival rate (%) ([2]; day 4): 83.33%
- Survival rate (%) ([2]; day 8): 83.33%

SMILES: O=c1[nH]cc(F)c(=O)[nH]1 [5-FU i.p., 5-fluorouracil]
- Mice body weights after anticancer agent administration (relative value in % with body weights for saline i.p. being 100) ([3]; 0 day, 5-fluorouracil 360 mg/kg i.p.): 102.0 ± 2.4%
- weight loss in comparison to the physiological saline administration group ([3]; 3rd day from anticancer agent administration, 5-fluorouracil 360 mg/kg i.p., Tukey's multiple comparison test): significant weight loss
- body weight, comparison of 5-FU i.p. and 5-FU i.p.+LPS groups ([3]; 6th day, Tukey's multiple comparison test P<0.05): significantly low
- Mice body weights after anticancer agent administration (relative value in % with body weights for saline i.p. being 100) ([3]; 3 day, 5-fluorouracil 360 mg/kg i.p.): 91.8 ± 4.1 %
- Mice body weights after anticancer agent administration (relative value in % with body weights for saline i.p. being 100) ([3]; 6 day, 5-fluorouracil 360 mg/kg i.p.): 94.5 ± 2.6^ %

SMILES: N.N.[Cl][Pt][Cl] [CDDP i.p., Cisplatin]
- mice survived ([4]; 14th day, LPSp 1 mg/kg body weight/day, Kaplan-Meier test P<0.05): 1 out of 6
- mice died ([4]; by the 6th day from anticancer agent administration, LPSp 1 mg/kg body weight/day): 5 out of 6
- Survival rate (%) ([4]; day 5, 6 mice per group): 50%
- Survival rate (%) ([4]; day 6): 16.7%
- Survival rate (%) ([4]; day 7): 16.7%
- Survival rate (%) ([4]; day 14): 16.7%

SMILES: O=P1(N(CCCl)CCCl)NCCCO1 (stereo not shown) [CY i.p., Cyclophosphamide]
- weight loss in comparison to the physiological saline administration group [5]: significant weight loss
